PMC7004140, “In vitro hepatotoxicity of Petasites hybridus extract (Ze 339) depends on the concentration, the cytochrome activity of the cell system, and the species used” (Phytotherapy Research, 2019)

Key:
[1] = tested on: S9 fractions from rat, dog and human; test: Metabolism by liver S9 fractions from different species; type: in vitro ADME, rat (Sprague Dawley), dog (beagle); settings: 20 μM, 60 min incubation
From the text: (§1) The metabolism of petasin, isopetasin, and neopetasin was investigated using three different S9 fractions originating from three different species (isolated from rat, dog, and human liver homogenates containing cytochrome P450 isoforms) and isolated cytochromes of two different species (human and rat; rat analogues of the respective human cytochromes were used). For the expression of the different cytochromes, a baculovirus expression system was used according to supplier's manual. The S9 fractions or respectively single P450 cytochromes were used to mimic the liver metabolism by in vitro incubation.
(§2) The assay was carried out in triplicate in 1.5 ml glass vials with a final concentration of 20 μM of petasin, isopetasin, and neopetasin. The incubation was performed in a 37°C warm water bath. S9 fractions were thawed slowly on ice. Four different approaches were pursued by testing: (a) petasin, neopetasin, and isopetasin before (0 min) and after 60 min incubations with S9 fraction; (b) petasin, neopetasin, and isopetasin without S9 fraction after 60 min incubation; (c) vehicle as negative controls; and (d) cofactors of S9 fraction after 60‐min incubation.
(§3) A mixture of NADPH regeneration systems A (20‐fold) and B (100‐fold), phosphate buffer, and H2O was added, preincubated at 37°C, and shaken gently for 5 min. Afterwards, the recommended amount between 10 and 40 pmol/ml of enzyme or enzyme mixture was added according to manufacturer's instruction and incubated for further 60 min at 37°C and gently shaken. Afterwards, the reactions were stopped by addition of acetonitrile (400 μl). For the control sample, acetonitrile was added at 0 min incubation. The samples were centrifuged for 3 min at 10,000 × g. The supernatant was transferred to high‐performance liquid chromatography vials and analyzed by ultra‐performance liquid chromatography mass spectrometry (UPLC/MS). The UPLC analysis was performed with an UPLC Acquity H Class from Waters (Waters Corporation, Switzerland) including a quaternary high‐pressure gradient pump, an automatic sample injector, and a column thermostat. […]

CYP2C8 (human) = molecular target: T1, CYP2C8 (human) (Homo sapiens, UniProt P10632); test: Metabolism by isolated human CYP2C8; type: in vitro ADME; settings: petasins 20 μM, 60 min
T1 construct: purchased BD Gentest (Switzerland); host or cells: baculovirus expression system
T1 sequence (P10632 1-490): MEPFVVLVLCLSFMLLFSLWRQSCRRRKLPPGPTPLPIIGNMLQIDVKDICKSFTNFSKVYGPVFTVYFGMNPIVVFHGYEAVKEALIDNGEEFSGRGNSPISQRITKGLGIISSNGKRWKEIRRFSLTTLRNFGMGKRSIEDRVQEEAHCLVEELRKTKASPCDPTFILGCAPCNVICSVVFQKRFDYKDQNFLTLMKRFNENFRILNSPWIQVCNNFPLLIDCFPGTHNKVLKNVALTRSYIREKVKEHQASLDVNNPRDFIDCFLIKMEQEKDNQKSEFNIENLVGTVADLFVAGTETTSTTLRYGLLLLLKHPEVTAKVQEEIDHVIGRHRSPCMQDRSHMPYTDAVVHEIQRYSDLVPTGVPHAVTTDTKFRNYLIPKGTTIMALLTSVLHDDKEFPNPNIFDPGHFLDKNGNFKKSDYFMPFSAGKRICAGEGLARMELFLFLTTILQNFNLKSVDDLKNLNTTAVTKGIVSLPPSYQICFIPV
From the text: as §1, §2, §3

HepG2 cells = test: WST-1 metabolic activity (cytotoxicity) in HepG2 cells; type: cell-based, human; settings: HepG2, 250 μM (highest concentration), 4 hr
Description: (§4) HepG2 and H‐4‐II‐E cells were differentiated for 24 hr. HepaRG cells were directly seeded in precoated 96‐well microtiter plates and were incubated in William's medium with general purpose supplements according to manufacturer's manual until adherence. All cells were treated with Ze 339 (up to 100 μg/ml) or petasin, isopetasin, neopetasin, petasol, isopetasol, petasin mixture, fatty acid mixture, and reconstituted extracts (up to 250 μM) for 4 hr.
(§5) In the three cell lines, cytotoxicity was defined as a decrease in metabolic activity of ≥20% in the WST‐1 assay. At the end of the experiment, 10 μl WST‐1 reagent was added to each well. Plates were then incubated for 2 hr to allow for the reduction of WST‐1 reagent. Absorbance was measured using a microplate absorbance reader (Infinite M 200, Tecan Trading Ltd., Switzerland) at 450 nm, reference wavelength of 620 nm. Due to some matrix effect, the lowest concentration (0.02 μg/ml for Ze 339 and 3.9 μM for single constituents and mixtures) of each substance tested was defined as 100% metabolic activity. Results were expressed as percentage of the control metabolic activity, and data were presented as mean values ± SEM (n = 3–6).
(§6) Concentration‐response analysis was done using the sigmoidal Hill equation: E(t) = E0 − Emax × C(t)^N/(IC50 ^N + C(t)^N), where E is the effect at time t, E0 the effect at baseline (time = 0), IC50 the concentration yielding 50% of the maximal effect (Emax), and N denotes the sigmoidicity coefficient (Origin 2017 Software). For statistical analysis, analysis of variance with Dunnett's multicomparison test was used to correct for multiplicity of testing (IBM SPSS Statistics software, version 25, IBM Corp., USA). The level of significance was ^* p < .05, ^** p < .01 and ^*** p < .001; NS = no significance.

HepaRG cells = test: WST-1 metabolic activity (cytotoxicity) in HepaRG cells; type: cell-based, human; settings: 250 μM, 4 hr
Description: as §4, §5, §6

CYP2B6 (human) = molecular target: T2, CYP2B6 (human) (Homo sapiens, UniProt P20813); test: Metabolism by isolated human CYP2B6; type: in vitro ADME; settings: petasins 20 μM, 60 min
T2 construct: purchased BD Gentest (Switzerland); host or cells: baculovirus expression system
T2 sequence (P20813 1-491): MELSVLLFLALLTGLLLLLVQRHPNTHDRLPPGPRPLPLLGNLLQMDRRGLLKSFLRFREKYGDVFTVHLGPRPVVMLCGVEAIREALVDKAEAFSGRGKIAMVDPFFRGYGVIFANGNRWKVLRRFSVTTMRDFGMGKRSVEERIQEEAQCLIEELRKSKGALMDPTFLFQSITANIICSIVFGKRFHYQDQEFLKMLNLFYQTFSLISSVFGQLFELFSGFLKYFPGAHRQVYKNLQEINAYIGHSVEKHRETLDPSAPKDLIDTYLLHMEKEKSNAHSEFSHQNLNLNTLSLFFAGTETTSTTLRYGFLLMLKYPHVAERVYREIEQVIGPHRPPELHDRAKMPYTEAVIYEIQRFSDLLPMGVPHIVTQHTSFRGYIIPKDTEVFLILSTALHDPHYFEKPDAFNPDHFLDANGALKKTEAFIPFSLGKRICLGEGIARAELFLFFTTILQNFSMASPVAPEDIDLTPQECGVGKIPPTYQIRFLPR
From the text: as §1, §2, §3

| rank order of extent of metabolism by S9 fractions of different species [1] | extent of metabolism by CYP2C8 (human) (CYP2C8 (human)) [%] | extent of metabolism by CYP2B6 (human) (CYP2B6 (human)) [%] | Compound | metabolic activity compared with the reference concentration (3.9 μM) (HepG2 cells) [%] | metabolic activity (HepaRG cells) [%] |
| --- | --- | --- | --- | --- | --- |
| rat>dog>human | 54 | 50 | C=C(C)[C@@H]1C[C@@]2(C)C(=CC1=O)CC[C@@H](OC(=O)/C(C)=C\C)[C@@H]2C [petasin] | 60.9 | 37.7 |
| rat>dog>human | 44 | 13 | C/C=C(/C)C(=O)O[C@@H]1CCC2=CC(=O)C(=C(C)C)C[C@]2(C)[C@H]1C [isopetasin] | 65.6 | 73 |
| rat>dog>human | 71 | 20 | C=C(C)[C@H]1C[C@@]2(C)C(=CC1=O)CC[C@@H](OC(=O)/C(C)=C\C)[C@@H]2C [neopetasin] | 66.8 | 28.9 |
